Here are results for 14 molecules from US7553496B2, “VEGF-A as an inhibitor of angiogenesis and methods of using same” (University of Kentucky Research Foundation, priority 2004, dated 2009).

For one data set, the system named is laser-induced CNV. Kind of data set: Laser-induced choroidal neovascularization (CNV) volume, confocal microscopy. Type of data set: in vivo, mouse. The settings on record: for effect on VEGF-A-induced suppression of CNV: given with VEGF-A164 after laser injury.
A further data set relates to choroidal macrophages. Kind of data set: Choroidal macrophage recruitment after laser injury (flow cytometry). Type of data set: in vivo, mouse. The method, then: Drug treatments. VEGF-A164 (4-12 ng), VEGF-A120 (2.7-27 ng), PLGF-1 (12.5-1,250 ng), mouse PLGF-2 (165-1,650 ng), mouse Ccl-2 (0.55 ng), neutralizing goat antibodies to mouse VEGF-A (5-20 ng), mouse VEGFR-1 (6-18 μg), mouse VEGFR-2 (25-250 ng), or rat NP-1 (200-500 ng; all R&D Systems), recombinant human SPARC (100-300 ng; purified in the laboratory of E. H. Sage) or neutralizing mouse antibody to human SPARC (4-12 μg; purified in the laboratory R. W. Brekken, University of Texas), neutralizing rabbit antibody to rat NP-2 (200-500 ng; gifts of D. D. Ginty, Johns Hopkins University and S. Niclou, Netherlands Institute for Brain Research (Shearer, M. C. et al. The astrocyte/meningeal cell interface is a barrier to neurite outgrowth which can be overcome by manipulation of inhibitory molecules or axonal signalling pathways. […]
Flow cytometry. […] Rabbit antibody to mouse VEGFR-1 (1:250; Santa Cruz) coupled with Cy5-donkey antibody to rabbit IgG Ab (1:250) and Phycoerythrin-conjugated rat antibody to mouse VEGFR-2 (1:250; eBioscience) were used to quantitate cell surface receptor expression. […] DNA content was analyzed following incubation with propidium iodide (0.05 mg/ml; Molecular Probes) containing 0.1% Triton X-100 and RNase A (0.1 mg/ml; Roche).
In general terms: Flow cytometry measures light scatter and fluorescence of single cells or particles in a stream.

In the next data set the target is VEGFR-1 (Homo sapiens, UniProt P17948). The settings on record: cited from earlier work.
The subject of a further data set is Ccl-2. Briefly: Ccl-2 levels in RPE and choroid after laser injury (ELISA). Type of data set: in vivo, mouse. (In an ELISA, binding on a coated surface is turned into a signal by an enzyme label.)
For data set [1], the system named is choroidal endothelial cells (CEC). Briefly: Cell cycle distribution of CEC after laser injury (flow cytometry, propidium iodide). The settings on record: mouse, in vivo. On the procedure: Flow cytometry. Single cell suspensions isolated from mouse RPE/choroids via collagenase D (20 U/ml; Roche Diagnostics) treatment were incubated in Fc block (0.5 mg/ml; BD Pharmingen) for 15 min on ice. Rabbit antibody to mouse VEGFR-1 (1:250; Santa Cruz) coupled with Cy5-donkey antibody to rabbit IgG Ab (1:250) and Phycoerythrin-conjugated rat antibody to mouse VEGFR-2 (1:250; eBioscience) were used to quantitate cell surface receptor expression. Macrophages defined as F4/80^+CD11c^− cells, were gated by rat antibody to mouse Cy5-F4/80 (1:30; Serotec) and hamster antibody to mouse FITC-CD11c (1:100; Serotec), CEC by FITC-conjugated rat antibody to mouse CD31 (1:250; BD Biosciences), and RPE cells by FITC-conjugated mouse antibody to human pan-cytokeratin (1:250; Sigma-Aldrich) staining following fixation with 4% paraformaldehyde and permeabilization with 1% Triton X-100 (Sigma Aldrich) and subjected to FACS analysis (FACSCalibur, BD Biosciences). DNA content was analyzed following incubation with propidium iodide (0.05 mg/ml; Molecular Probes) containing 0.1% Triton X-100 and RNase A (0.1 mg/ml; Roche).

A further data set has as its system VEGF-A. The settings on record: mouse, in vivo.
In the next data set the target is c-kit (Homo sapiens, UniProt P10721). The settings on record: cited from earlier work.
In a further data set the test system is flt3. The settings on record: read-out: IC50 flt3; cited from earlier work.
In data set [2] the test system is platelet derived growth factor receptor (PDGFR). The settings on record: cited from earlier work.
For data set [3], the system named is bone marrow derived endothelial cells (BMDECs). Kind of data set: Bone marrow derived endothelial cell incorporation in GFP chimeric mice (flow cytometry). Type of data set: in vivo, mouse. The settings on record: 0.55 ng. From the text:
We tested the effect of VEGF-A164 injection one day after laser injury in GFP chimeric mice 8 weeks following bone marrow transplantation in mice with engraftment exceeding 90%. In the RPE/choroid, GFP^+ cells were identified only at the site of laser injury and the immediate vicinity (data not shown). The bulk (>60%) of GFP^+ cells in the RPE/choroid following injury expressed either CD11b or F4/80, markers of monocytic lineage, while nearly all (>95%) CD11b^+ and F4/80^+ cells expressed GFP. […] The vast majority (>90%) of GFP^+CD31^+ cells, both in PBS- and VEGF-A164-treated eyes, also expressed CD11b or F4/80.
Flow cytometry. Single cell suspensions isolated from mouse RPE/choroids via collagenase D (20 U/ml; Roche Diagnostics) treatment were incubated in Fc block (0.5 mg/ml; BD Pharmingen) for 15 min on ice. Rabbit antibody to mouse VEGFR-1 (1:250; Santa Cruz) coupled with Cy5-donkey antibody to rabbit IgG Ab (1:250) and Phycoerythrin-conjugated rat antibody to mouse VEGFR-2 (1:250; eBioscience) were used to quantitate cell surface receptor expression. […] DNA content was analyzed following incubation with propidium iodide (0.05 mg/ml; Molecular Probes) containing 0.1% Triton X-100 and RNase A (0.1 mg/ml; Roche).

Where [4] appears, read: agent alone, intravitreous, immediately or one day after laser injury, wild-type mice, vs PBS.

Entries after “also recorded” stand apart in the source; their conditions may differ.

Sequence of VEGFR-1 (P17948 27-1338, species assumed): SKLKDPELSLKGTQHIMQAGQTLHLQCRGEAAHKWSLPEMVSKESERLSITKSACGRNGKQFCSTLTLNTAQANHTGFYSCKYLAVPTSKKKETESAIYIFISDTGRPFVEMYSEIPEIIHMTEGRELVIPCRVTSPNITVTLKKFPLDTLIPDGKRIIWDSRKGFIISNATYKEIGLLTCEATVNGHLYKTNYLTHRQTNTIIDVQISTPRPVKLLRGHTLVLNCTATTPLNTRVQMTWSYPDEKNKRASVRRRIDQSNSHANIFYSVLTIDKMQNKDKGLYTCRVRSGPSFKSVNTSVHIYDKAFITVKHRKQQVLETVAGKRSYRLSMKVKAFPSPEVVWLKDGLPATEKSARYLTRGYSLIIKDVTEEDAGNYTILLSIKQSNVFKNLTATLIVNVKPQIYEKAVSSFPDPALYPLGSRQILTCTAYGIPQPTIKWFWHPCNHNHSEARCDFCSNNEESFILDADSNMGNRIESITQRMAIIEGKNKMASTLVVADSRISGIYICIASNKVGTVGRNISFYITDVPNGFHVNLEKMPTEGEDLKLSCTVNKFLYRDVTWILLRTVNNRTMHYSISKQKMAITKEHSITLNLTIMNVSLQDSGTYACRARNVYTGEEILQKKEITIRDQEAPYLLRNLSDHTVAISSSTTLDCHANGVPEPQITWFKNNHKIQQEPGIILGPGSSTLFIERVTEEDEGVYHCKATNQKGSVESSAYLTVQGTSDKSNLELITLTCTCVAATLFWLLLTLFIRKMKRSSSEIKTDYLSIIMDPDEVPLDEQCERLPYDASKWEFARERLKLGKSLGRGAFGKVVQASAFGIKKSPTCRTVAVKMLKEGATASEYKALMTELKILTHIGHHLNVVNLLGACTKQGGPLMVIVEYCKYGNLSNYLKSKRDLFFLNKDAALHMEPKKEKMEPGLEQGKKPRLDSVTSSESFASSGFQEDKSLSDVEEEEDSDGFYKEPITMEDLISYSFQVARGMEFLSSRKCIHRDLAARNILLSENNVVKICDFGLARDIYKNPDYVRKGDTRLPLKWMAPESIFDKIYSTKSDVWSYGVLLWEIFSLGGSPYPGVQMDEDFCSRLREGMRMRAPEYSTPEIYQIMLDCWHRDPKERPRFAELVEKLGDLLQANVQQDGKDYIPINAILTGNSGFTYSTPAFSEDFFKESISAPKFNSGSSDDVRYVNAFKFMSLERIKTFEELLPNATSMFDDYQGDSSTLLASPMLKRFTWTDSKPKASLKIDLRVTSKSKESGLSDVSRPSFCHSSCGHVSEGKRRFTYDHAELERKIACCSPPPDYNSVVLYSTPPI
Sequence of c-kit (P10721 26-976): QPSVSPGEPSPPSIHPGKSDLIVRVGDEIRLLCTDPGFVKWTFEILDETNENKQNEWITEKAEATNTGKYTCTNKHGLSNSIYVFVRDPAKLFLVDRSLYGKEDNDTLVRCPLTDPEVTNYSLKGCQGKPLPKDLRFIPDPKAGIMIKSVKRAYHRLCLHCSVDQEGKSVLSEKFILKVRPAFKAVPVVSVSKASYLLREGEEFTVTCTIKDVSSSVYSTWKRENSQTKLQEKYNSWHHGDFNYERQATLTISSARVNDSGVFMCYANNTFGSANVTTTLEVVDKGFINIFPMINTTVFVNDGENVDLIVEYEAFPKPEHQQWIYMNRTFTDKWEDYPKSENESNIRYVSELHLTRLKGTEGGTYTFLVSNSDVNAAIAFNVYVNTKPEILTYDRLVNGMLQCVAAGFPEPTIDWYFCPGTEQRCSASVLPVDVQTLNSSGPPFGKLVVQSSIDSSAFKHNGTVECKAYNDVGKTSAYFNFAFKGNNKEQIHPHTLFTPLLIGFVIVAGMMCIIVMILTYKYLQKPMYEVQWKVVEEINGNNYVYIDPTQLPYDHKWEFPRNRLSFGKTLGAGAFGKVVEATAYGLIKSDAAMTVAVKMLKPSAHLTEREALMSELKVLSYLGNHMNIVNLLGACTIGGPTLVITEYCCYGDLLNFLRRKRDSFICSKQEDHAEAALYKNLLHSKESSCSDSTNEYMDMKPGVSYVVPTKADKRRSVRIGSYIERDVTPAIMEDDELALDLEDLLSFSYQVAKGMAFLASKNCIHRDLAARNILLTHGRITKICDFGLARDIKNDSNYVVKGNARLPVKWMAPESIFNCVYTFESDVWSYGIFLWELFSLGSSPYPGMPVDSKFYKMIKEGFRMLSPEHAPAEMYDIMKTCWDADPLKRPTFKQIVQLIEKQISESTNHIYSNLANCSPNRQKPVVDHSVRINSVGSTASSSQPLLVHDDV

For the molecule `OB(O)c1cccc(NCc2cc(O)ccc2O)c1` [DBAPBA], in the data set on laser-induced CNV, the “effect on VEGF-A-induced suppression of CNV” value (shortened to “effect … of CNV”) is given as “blocked; also recorded: reversed by DBAPBA in a dose-dependent fashion”. For the same molecule, the “effect on VEGF-A-induced suppression of monocyte recruitment” value with choroidal macrophages is “blocked”. Also, on VEGFR-1, the IC50 is 40000 nM. Also, the “effect on VEGF-A-induced suppression of Ccl-2” value (“effect … of Ccl-2” for short) in the data set on Ccl-2 is “blocked”.
With “FGF-2: basic fibroblast growth factor, another potent angiogenic cytokine”, the “volume of CNV” value with laser-induced CNV (setting [4]) is listed as “did not evoke similar responses; also recorded: minor increases”.
Turning to `C=CC1=C(C)c2cc3[n-]c(cc4[n-]c(cc5nc(cc1n2)C(C)=C5C=C)c(C)c4CCC(=O)O)c(CCC(=O)O)c3C.[Zn+2]` [ZnPP, zinc protoporphyrin IX], the “effect … of CNV” value with laser-induced CNV is listed as “abolished”. Further, the “effect on VEGF-A-induced G0/G1 arrest of CEC” value in data set [1] was “reversed”. For the same molecule, the “effect … of Ccl-2” value with Ccl-2 is “abolished”.
As for `[Cl-].[Cl-].[Co+2]` [CoCl2], in the data set on VEGF-A, the “aggregate VEGF-A exposure (area under the curve) higher than after laser injury alone” value was found to be 52%; the “peak VEGF-A in RPE and choroid relative to maximal level following laser injury alone” value is reported as “less than double”.
As for `Cc1occc(=O)c1[O-].Cc1occc(=O)c1[O-].[O]=[V+2]` [BMOV, bis(maltolato)oxovanadium(IV)], the “effect … of CNV” value in the data set on laser-induced CNV is on record as “abrogated”.
Still for that read-out and setting: as for `COC(=O)[C@@H](N)CCCNC(=N)N[N+](=O)[O-]` [L-NAME, N^ω-nitro-L-arginine methyl ester], the entry is “did not reverse; also recorded: not affected”; as for `O.O.O.O.O.O.O.O.O.O=C([O-])[C@@H]1[O][Sb]2([O-])([O][Sb]34([OH])[O][C@H]([C@H](O)CO)[C@H]([O]3)[C@H](C(=O)[O-])[O]4)[O][C@H]([C@H](O)CO)[C@@H]1[O]2.[Na+].[Na+].[Na+]` [sodium stibogluconate], “abolished”.
Same read-out and setting: then `Cc1[nH]c(/C=C2\C(=O)Nc3ccc(S(=O)(=O)Cc4c(Cl)cccc4Cl)cc32)c(C)c1C(=O)N1CCC[C@@H]1CN1CCCC1` [PHA665752], with “Neither AG1295 (15 ng) nor PHA665752 (0.4 ng) blocked”.
In the case of `OO` [H2O2], the “volume of CNV” value in the data set with laser-induced CNV (setting [4]) is “decreased the volume of CNV; also recorded: inhibited”.
As to `Cc1cc2ncc(-c3ccccc3)nc2cc1C` [AG1295, 6,7-dimethyl-2-phenylquinoxaline], the IC50 on c-kit was 1800 nM; in the data set with flt3, 500 nM; in data set [2], 400 nM. The “effect … of CNV” value with laser-induced CNV is on record as “Neither AG1295 (15 ng) nor PHA665752 (0.4 ng) blocked”.
Take `Cc1cc(C)c(C=C2C(=O)Nc3ccccc32)[nH]1` [SU5416, 3-((2,4-dimethylpyrrol-5-yl)methylidene]-indolin-2-one]: the “effect … of CNV” value in the data set on laser-induced CNV is “blocked; also recorded: abrogates”. Further, the “effect on VEGF-A-induced suppression of monocyte recruitment” value with choroidal macrophages is “blocked”. The “effect … of Ccl-2” value in the data set on Ccl-2 is on record as “blocked”.
As to `CC(C)c1cc(/C=C(\C#N)C(=O)NCCCc2ccccc2)cc(C(C)C)c1O` [SU1498, (E)-3-(3,5-diisopropyl-4-hydroxyphenyl)-2-[(3-phenyl-n-propyl)amino-carbonyl]acrylonitrile], the “effect on VEGF-E-induced increase in CNV” value in the data set on laser-induced CNV (after laser injury) is listed as “blocked”.
On to “Ccl-2: exogenous recombinant Ccl-2, monocyte chemoattractant”, for which the “effect on CNV inhibited by VEGF-A antibody” value in the data set on laser-induced CNV (0.55 ng) is “restored the CNV”. Also, the “volume of CNV” value in the data set with laser-induced CNV (Ccl2−/− or Ccr2−/− mice) is given as “restores CNV”; in the data set on laser-induced CNV (Ccl2−/− or Ccr2−/− mice, listed as Recombinant Ccl-2) it was “restored CNV”. The “effect … of CNV” value is “abrogates” with laser-induced CNV and “abrogated” in the data set with laser-induced CNV (listed as recombinant Ccl-2). The “effect on VEGF-A164 reduction in vasculogenesis” value in [3] was “abrogated”. For the same molecule, in data set [3], the “effect on clodronate liposome reduction of BMDEC incorporation” value was “did not abrogate”.

B1: SPARC: recombinant human SPARC, secreted protein, acidic, rich in cysteine (protein, UniProt P09486 18-303, looked up)
SPARC: APQQEALPDETEVVEETVAEVTEVSVGANPVQVEVGEFDDGAEETEEEVVAENPCQNHHCKHGKVCELDENNTPMCVCQDPTSCPAPIGEFEKVCSNDNKTFDSSCHFFATKCTLEGTKKGHKLHLDYIGPCKYIPPCLDSELTEFPLRMRDWLKNVLVTLYERDEDNNLLTEKQKLRVKKIHENEKRLEAGDHPVELLARDFEKNYNMYIFPVHWQFGQLDQHPIDGYLSHTELAPLRAPLIPMEHCTTRFFETCDLDNDKYIALDEWAGCFGIKQKDIDKDLVI
For B1, the “volume of CNV” value with laser-induced CNV (setting [4]) is “did not alter CNV”. For the same molecule, the “effect … of CNV” value in the data set on laser-induced CNV is recorded as “abolished”; in the data set with laser-induced CNV (listed as recombinant human SPARC), “dose-dependently abolished”. For the same molecule, in the data set with VEGFR-1 (in vitro, literature), the “inhibition of VEGFR-1 kinase activity” value is recorded as “inhibits the kinase activity of VEGFR-1”.

Broadly, the IC50 is the midpoint of a concentration-inhibition curve.
